Test results from patent US5089516A, “1-phenyl-3,5-pyrazolidinedione hydroxystyrene compounds which have tyrosine kinase inhibiting activity” (Kanegafuchi Kagaku Kogyo Kabushiki Kaisha, priority 1987, dated 1992).

Assays:
[1] = tested on: passive cutaneous anaphylaxis (PCA) reaction; assay: Inhibitory activity against homologous PCA reaction in rats; type: in vivo, male Wistar rats; conditions: Rattus norvegicus, oral, read-out: Inhibition rate (PCA reaction); for inhibition in vivo at 100 mg/kg: 1 hour before antigen
Method: (1) Inhibitory activity against homologous PCA reaction in rats
Antiserum was prepared according to I. Mota [Immunology, 7, 681(1964)]and the PCA reaction was conducted according to Maruyama et al. [Folia Pharmacologica Japonica, 74, 179(1978}].
An ovalbumin solution dissolved in physiological saline (2 mg/ml) was injected intramuscularly into both thighs of male Wistar rats weighing 200 to 260 g in a volume of 0.5 ml/100 g body weight, and pertussis vaccine (Bordetella pertussis, 2×10^10 /ml/ Chiba Serum Institute) was intraperitoneally administered at 1 ml/rat. Twelve days after sensitization, blood was taken from posterior aorta under ether anesthesia and serum was separated and stored at -80° C.
In each group, 4 male Wistar rats weighing 180 to 210 g were used. Back of the rats was shaved and reach 0.05 ml of antiserum diluted 32 times with physiological saline was injected intradermally at four sites on the back. After 48 hours, 1 ml of a mixture of ovalbumin (2 mg/ml) as an antigen and Evans blue (10 mg/ml) in the volume ratio of 1 : 1, which was dissolved in physiological saline was injected intravenously into the tail. Thirty minutes later, the rats were bled to death under ether anesthesia and the back skin of the rats was removed. The blue-dyed area formed by pigment exudation was measured and an inhibition rate (%) was calculated as compared with control according to the following equation. [formula]
A test compound suspended in a 2.5 % aqueous solution of gum arabic containing 0.2 % Tween 80 was administered orally in a volume of 0.5 m:/100 g body weight 1 hour before the injection of antigen. To the control group, only the vehicle was administered. Tranilast which was a positive control compound was administered orally 30 minutes before the injection of antigen.

[2] = molecular target: T1, 5-lipoxygenase (Cavia porcellus, UniProt A0A286X958); assay: 5-Lipoxygenase inhibiting activity (5-HETE formation, cytosol of peritoneal exudate cells); type: biochemical, Hartley guinea pigs; conditions: 10 μM in the reaction mixture; read-out: Inhibition rate (5-lipoxygenase)
T1 construct: The cytosol fraction was used as an enzyme solution; from tissue; host or cells: peritoneal exudate cells of casein-injected Hartley guinea pigs, 105,000×g cytosol
T1 sequence (A0A286X958 1-674): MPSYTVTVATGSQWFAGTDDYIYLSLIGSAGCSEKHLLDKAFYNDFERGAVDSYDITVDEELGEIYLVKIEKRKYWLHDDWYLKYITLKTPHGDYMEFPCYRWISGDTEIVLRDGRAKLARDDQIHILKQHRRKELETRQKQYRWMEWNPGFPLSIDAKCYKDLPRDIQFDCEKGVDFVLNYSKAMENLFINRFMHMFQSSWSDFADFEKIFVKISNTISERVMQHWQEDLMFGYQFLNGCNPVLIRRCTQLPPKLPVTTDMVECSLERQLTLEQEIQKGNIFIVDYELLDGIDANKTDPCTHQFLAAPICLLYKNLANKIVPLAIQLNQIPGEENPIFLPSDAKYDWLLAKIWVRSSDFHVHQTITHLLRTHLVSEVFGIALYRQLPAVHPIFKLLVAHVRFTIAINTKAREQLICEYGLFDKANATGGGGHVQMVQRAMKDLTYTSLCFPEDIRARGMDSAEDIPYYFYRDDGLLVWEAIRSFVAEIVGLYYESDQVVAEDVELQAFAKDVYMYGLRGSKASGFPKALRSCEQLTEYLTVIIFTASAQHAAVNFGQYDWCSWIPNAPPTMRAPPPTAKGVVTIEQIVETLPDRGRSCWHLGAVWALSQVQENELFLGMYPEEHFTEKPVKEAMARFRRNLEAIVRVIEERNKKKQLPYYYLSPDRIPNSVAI
Method: 5-Lipoxygenase inhibiting activity of the compound of the present invention was measured referring to the method for measuring 5-lipoxygenase activity by K. Ochi et al. [Journal of Biological Chemistry (J. Biol. Chem.), 258, 5754(1983)].
Sterilized 2% solution of casein (pH 7) was injected intraperitoneally into Hartley guinea pigs in a volume of 5 ml/100 g body weight. Fifteen hours later, the guinea pigs were killed and peritoneal exudate cells thereof were collected. After the exudate cells were washed with 17 mM Tris--HCl buffer (pH 7.4) containing 0.74% ammonium to remove contaminating erythrocytes in the exudate cells suspension, the cells were washed with buffer A (130 mM NaCl, 1 mM EDTA, 25 mM sodium phosphate, pH 7.4). The washed cells were suspended in buffer B (50 mM sodium phosphate, 1 mM EDTA, 0.1% gelatin, pH 7.4) at 10^8 cells/ml, sonicated and centrifuged at 10,000×g for 20 minutes under the cold atmosphere. The obtained supernatant was further centrifuged at 105,000×g for 60 minutes under the cold atmosphere. The cytosol fraction was used as an enzyme solution.
The enzyme solution was preincubated with the […] in the presence of 1 mM CaCl2, 1 mM reduced gluthathione (GSH) and 2 mM ATP at 30° C. for 5 minutes in 0.2 ml of a reaction mixture and the mixture was further incubated at 30° C. for 5 minutes by adding 20 μM [1-^14 C] arachidonic acid (0.1 μCi) thereto. The test compounds were dissolved in ethanol to give the reaction mixture containing 2% ethanol as a final concentration. Only ethanol was added to the reaction mixture as a control group.
To the reaction mixture were added 2.5 ml of a mixture of chloroform and methanol (2/1 by volume) and 0.3 ml of 40 mM citric acid to stop the reaction. The mixture was vortexed and an organic solvent layer was evaporated to dryness under nitrogen gas. After dissolving the dried organic layer in a fixed amount of the mixture of chloroform and methanol (2/1 by volume), it was spotted on a silica gel plate (Kiesel gel 60F254, E. Merck) and products were separated using a developer (the organic solvent layer of ethyl acetate/water/2,2,4-trimethylpentane/acetic acid=11/10/5/2 by volume). After the radioactive position of the product was determined by means of a radioautography, an area equivalent to that of 5-hydroxyeicosatetraenoic acid (hereinafter referred to as "5-HETE") was scraped off, and then its radioactivity was measured with a liquid scintillation counter. With regarding the amount of the generated 5-HETE as the 5-lipoxygenase inhibiting activity, the inhibition rate (%) in comparison with the control group was calculated according to the following equation. [formula]

[3] = molecular target: T2, epidermal growth factor receptor-tyrosine kinase complex (Homo sapiens, UniProt P00533); assay: Tyrosine kinase inhibiting activity (A-431 membrane preparation, EGF-stimulated); type: biochemical; conditions: read-out: Tyrosine kinase inhibition rate; for inhibition at 10 µM: 10 μM in the reaction mixture; for inhibition at 1 µM: 1 μM in the reaction mixture
T2 construct: The membrane preparation was employed in the following measurement without solubilization; endogenous in cells; host or cells: A-431 (ATCC CRL1555), membrane preparation, not solubilized
Method: Tyrosine kinase inhibiting activity of the compound of the present invention was measured referring to a method for measuring tyrosine kinase activity by G. Carpenter or by S. Cohen et al. [J. Biol. Chem., 254, 4884(1979); J. Biol. Chem., 257, 1528(1982)].
Cell line A-431 derived from human carcinoma (ATCC CRL1555) was cultured at 37° C. under the condition of 5% CO2 in Dulbecco's modified Eagle's medium (made by NISSUE PHARMACEUTICAL CO., LTD.) containing 10% by volume fetal bovine serum, 50 μg/ml of streptomycin, 50 IU/ml of penicillin G and 50 μg/ml of kanamycin. […] The membrane preparation was employed in the following measurement without solubilization.
A test compound dissolved in dimethylsulfoxide (hereinafter referred to as "DMSO") was added to a mixture of 20 mM of N-2-hydroxyethylpiperazine-N'-2-ethanesulfonic acid buffer (pH 7.4), 1 mM of MnCl2, 7.5 μg of bovine serium albumin and the membrane preparation (10 μg as protein). After incubation at 0° C. for 5 minutes, 100 ng of epidermal growth factor (hereinafter referred to as "EGF") was added thereto and the mixture was further incubated at 0° C. for 15 minutes. [γ-^32 P]ATP (3000 Ci/mmol, 0.1 μCi) was added thereto to make final volume of 70 μl. After incubation at 0° C. for 15 minutes, 50 μl of the reaction mixture was soaked into Whatman 3 MM filter paper (made by Whatman Ltd.) and immediately the reaction was stopped by an aqueous solution of 10% by weight trichloroacetic acid containing 10 mM sodium pyrophosphate. The filter paper was sufficiently washed with the same solution and then washed with ethanol, and dried. Radioactivity present in the filter paper was measured by liquid scintillation counter (A). Also, radioactivity was measured in case of the reaction without EGF (B), the reaction without the test compound (C), and the reaction without both EGF and the test compound (D) as a control.
Tyrosine kinase inhibition rate (%) was calculated by the following equation. [formula]

[4] = tested on: antigen-induced airway constriction; assay: Inhibitory activity against antigen-induced airway constriction in actively sensitized guinea pigs; type: in vivo; conditions: Cavia porcellus, iv, 3 minutes before antigen inhalation, read-out: Inhibition rate (airway constriction)
Method: (3) Inhibitory activity against antigen-induced airway constriction in actively sensitized guinea pigs
That is, the sensitized guinea pigs (5 guinea pigs/group) were provided with artificial respiration by inserting a tracheal cannula under urethane anesthesia (1.5 g/kg body weight, intraperitoneal administration), and then, gallamine at 1 mg/kg body weight was injected intravenously to stop spontaneous respiration of the guinea pigs. Inhalation of 0.5% aqueous solution of ovalbumin was conducted using a nebulizer for 1 minute to increase antigen-induced airway constriction, at the same time, airway pressure was recorded through a transducer. Test compound was administered into jugular vein (i.v.) of the guinea pig 3 minutes before the antigen inhalation or administered orally (p.o.) 2 hours before the antigen inhalation. As a positive control compound, theophylline which was a drug for anti-asthma was used. The effect of the compound was estimated by calculating the maximum value of airway constriction (%) in comparison with the control group, according to the following equation. [formula]

[5] = tested on: Nycobacterium smegmatis ATCC 607; assay: Antibacterial activity (MIC) against acid-fast bacteria; type: cell-based; conditions: 37° C., 40 to 42 hours
Method: As for acid-fast bacteria, after cultured in glycerol broth medium, there was prepared a bacterial suspension for inoculation containing about 10^6 of the bacteria per 1 ml of the medium. On the other hand, there were prepared some glycerol Czapek agar plating media with adding the test compounds, and thereto the bacterial suspension for inoculation was streaked.

[6] = tested on: antigen-induced anaphylactic shock death; assay: Protecting effect against antigen-induced anaphylactic shock death in actively sensitized guinea pigs; type: in vivo, male guinea pigs; conditions: Cavia porcellus, 1.5 h, oral, 30 minutes before antigen inhalation
Method: (2) Protecting effect against antigen-induced anaphylactic shock death in actively sensitized guinea pigs
Anaphylactic shock death caused by inhalation of antigen was observed according to John P. Devlin Pulmonary and Antiallergic Drugs, John Wiley & Sons, (1985)] employing actively sensitized guinea pigs.
Each 100 mg/kg of body weight ovalbumin dissolved in physiological saline was injected into gluteus and into peritoneal cavity of male guinea pigs weighing 250 to 350 g. Three days later, the animals were further injected intraperitoneally with ovalbumin (100 mg/kg body weight) to conduct booster. Those animals were employed for testing 3 to 4 weeks after the sensitization.
In each group, 4 or more actively sensitized guinea pigs were pretreated by subcutaneously injecting pyrilamine (1 mg/kg body weight) 30 minutes before antigen inhalation to suppress histamine-dependent response and propranolol (1 mg/kg body weight) to enhance the response induced by other than histamine 10 minutes before the antigen inhalation.
The animal was placed in a desiccator with a capacity of about […] and 0.5% aqueous solution of ovalbumin in the state of aerosol was inhaled with ultrasonic type nebulizer for five minutes. Anaphylactic shock death was observed and the animals survived for 90 minutes or more after antigen inhalation were estimated to be protected. All the animals of the control group died due to anaphylactic shock. The compounds of the present invention and therapeutic antiasthmatic agent (tranilast, theophylline) were administered orally 30 minutes before the antigen inhalation.

T2 sequence (P00533 25-1210, one chain of several): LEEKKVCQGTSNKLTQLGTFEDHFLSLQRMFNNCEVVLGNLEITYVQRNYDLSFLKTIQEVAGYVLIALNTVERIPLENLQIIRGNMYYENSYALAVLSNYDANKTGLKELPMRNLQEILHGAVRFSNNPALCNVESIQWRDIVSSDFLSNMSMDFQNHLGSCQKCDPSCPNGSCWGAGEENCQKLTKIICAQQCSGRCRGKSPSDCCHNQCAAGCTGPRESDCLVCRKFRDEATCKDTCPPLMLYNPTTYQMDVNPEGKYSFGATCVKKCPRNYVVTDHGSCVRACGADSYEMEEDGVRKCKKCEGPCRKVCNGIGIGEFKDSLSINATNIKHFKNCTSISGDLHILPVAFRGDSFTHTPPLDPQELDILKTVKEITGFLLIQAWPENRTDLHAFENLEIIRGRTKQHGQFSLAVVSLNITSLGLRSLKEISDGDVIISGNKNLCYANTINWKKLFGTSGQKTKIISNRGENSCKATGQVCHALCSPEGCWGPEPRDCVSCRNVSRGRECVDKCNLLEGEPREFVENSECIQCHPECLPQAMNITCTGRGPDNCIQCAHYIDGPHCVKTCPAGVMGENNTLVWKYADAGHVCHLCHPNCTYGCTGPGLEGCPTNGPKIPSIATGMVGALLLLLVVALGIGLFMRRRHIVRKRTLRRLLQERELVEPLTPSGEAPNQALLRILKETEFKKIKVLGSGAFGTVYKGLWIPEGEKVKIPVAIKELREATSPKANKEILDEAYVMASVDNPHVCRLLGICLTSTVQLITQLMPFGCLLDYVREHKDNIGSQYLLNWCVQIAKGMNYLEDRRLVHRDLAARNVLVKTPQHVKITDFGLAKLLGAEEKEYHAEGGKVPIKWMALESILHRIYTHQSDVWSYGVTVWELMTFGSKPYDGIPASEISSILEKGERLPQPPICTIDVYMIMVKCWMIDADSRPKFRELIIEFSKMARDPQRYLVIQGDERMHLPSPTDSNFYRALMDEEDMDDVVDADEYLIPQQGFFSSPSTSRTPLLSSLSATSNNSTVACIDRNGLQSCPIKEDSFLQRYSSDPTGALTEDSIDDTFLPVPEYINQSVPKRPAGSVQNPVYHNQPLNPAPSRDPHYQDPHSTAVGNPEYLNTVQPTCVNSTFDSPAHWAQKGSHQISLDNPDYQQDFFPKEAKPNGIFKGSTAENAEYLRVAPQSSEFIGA

Structure (SMILES)	inhibition in vivo at 100 mg/kg [1]	inhibition at 10 µM [2]	inhibition at 10 µM [3]	responders at 100 mg/kg [6]	other results
N#CC(=Cc1cc(O)c(O)c(Cc2ccccc2)c1)C(N)=O [Compound 23]	29%	85%	60%	–	–
CC(C)c1cc(C=C2SC(Nc3ccccc3)=NC2=O)cc(C(C)C)c1O [Compound 32]	21%	–	–	–	inhibition in vivo at 2 mg/kg ([4]; 2 mg/kg): 23%; MIC [5]: ≤ 6 µg/mL; inhibition at 1 µM [3]: 74%
CC(C)c1cc(C=C2SC(NCCc3ccccc3)=NC2=O)cc(C(C)C)c1O [Compound 34]	48%	–	–	–	MIC [5]: ≤ 6 µg/mL; inhibition at 1 µM [3]: 63%
CC(C)c1cc(C=C2SC(NCc3ccc(Cl)cc3)=NC2=O)cc(C(C)C)c1O [Compound 36]	–	84%	59%	25%	–
COc1ccc(CNC2=NC(=O)C(=Cc3cc(C(C)C)c(O)c(C(C)C)c3)S2)cc1 [Compound 38]	–	88%	85%	25%	–
Cn1c(=O)c2[nH]cnc2n(C)c1=O [theophylline, reference compound]	–	–	–	–	responders at 30 mg/kg ([6]; 30 mg/kg): 50%; inhibition in vivo at 1 mg/kg ([4]; 1 mg/kg): 31%
COc1ccc(/C=C/C(=O)Nc2ccccc2C(=O)O)cc1OC [tranilast, reference compound]	–	–	–	0%	inhibition in vivo at 300 mg/kg ([1]; 300 mg/kg, 30 minutes before antigen, positive control): 40%
